Laboratory results as given in ChEMBL document CHEMBL5143656, “Polyphenolic compounds: Synthesis, assessment of antimicrobial effect and enzymes inhibition against important medicinal enzymes with computational details” (Bioorg Med Chem Lett, 2022).
In brackets after ≈: the same amount, converted by molar mass.

Experiments:
Acetylcholinesterase = Acetylcholinesterase (Homo sapiens, UniProt P22303); test: Inhibition of AChE (unknown origin) using […] as substrate incubated for 10 mins by Ellman's method
Cholinesterase = Cholinesterase (Homo sapiens, UniProt P06276); test: Inhibition of BChE (unknown origin) using […] as substrate incubated for 10 mins by Ellman's method
Tyrosinase [1] = biological target: T1, Tyrosinase (Homo sapiens, UniProt P14679); test: Inhibition of tyrosinase (unknown origin) using L-DOPA as substrate incubated for 10 mins
T1 sequence (P14679 whole entry): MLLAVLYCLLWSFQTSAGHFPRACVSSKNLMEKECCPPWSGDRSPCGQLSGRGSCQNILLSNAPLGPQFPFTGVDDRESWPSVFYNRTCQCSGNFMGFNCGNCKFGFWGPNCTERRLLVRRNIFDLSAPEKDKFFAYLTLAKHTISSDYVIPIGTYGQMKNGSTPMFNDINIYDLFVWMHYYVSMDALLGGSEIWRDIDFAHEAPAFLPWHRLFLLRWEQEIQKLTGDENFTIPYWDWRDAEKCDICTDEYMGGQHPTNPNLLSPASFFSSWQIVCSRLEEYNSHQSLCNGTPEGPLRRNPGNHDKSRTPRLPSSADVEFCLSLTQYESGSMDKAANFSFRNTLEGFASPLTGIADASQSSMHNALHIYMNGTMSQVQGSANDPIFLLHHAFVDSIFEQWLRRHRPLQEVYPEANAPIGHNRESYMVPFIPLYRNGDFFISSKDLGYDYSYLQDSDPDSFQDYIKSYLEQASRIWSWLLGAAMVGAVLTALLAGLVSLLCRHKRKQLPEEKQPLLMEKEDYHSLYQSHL

PC-3 = test: Cytotoxicity in human PC3 cells assessed as reduction in cell viability incubated for 24 hrs by MTT assay; type: functional, cell-based; conditions: PC-3, 24 h
Escherichia coli = test: Antimicrobial activity Escherichia coli against incubated for 24 hrs; type: functional
Klebsiella pneumoniae = test: Antimicrobial activity Klebsiella pneumoniae against incubated for 24 hrs; type: functional
Staphylococcus aureus = test: Antimicrobial activity Staphylococcus aureus against incubated for 24 hrs; type: functional
Enterococcus faecalis = test: Antimicrobial activity Enterococcus faecalis against incubated for 24 hrs; type: functional
Candida albicans = test: Antimicrobial activity Candida albicans against incubated for 24 hrs; type: functional
Cyberlindnera jadinii = test: Antimicrobial activity Candida utilis against incubated for 24 hrs; type: functional; conditions: Williopsis jadinii
Tyrosinase [2] = biological target: T1, Tyrosinase; test: Inhibition of tyrosinase (unknown origin)

Cholinesterase, sequence (P06276 whole entry): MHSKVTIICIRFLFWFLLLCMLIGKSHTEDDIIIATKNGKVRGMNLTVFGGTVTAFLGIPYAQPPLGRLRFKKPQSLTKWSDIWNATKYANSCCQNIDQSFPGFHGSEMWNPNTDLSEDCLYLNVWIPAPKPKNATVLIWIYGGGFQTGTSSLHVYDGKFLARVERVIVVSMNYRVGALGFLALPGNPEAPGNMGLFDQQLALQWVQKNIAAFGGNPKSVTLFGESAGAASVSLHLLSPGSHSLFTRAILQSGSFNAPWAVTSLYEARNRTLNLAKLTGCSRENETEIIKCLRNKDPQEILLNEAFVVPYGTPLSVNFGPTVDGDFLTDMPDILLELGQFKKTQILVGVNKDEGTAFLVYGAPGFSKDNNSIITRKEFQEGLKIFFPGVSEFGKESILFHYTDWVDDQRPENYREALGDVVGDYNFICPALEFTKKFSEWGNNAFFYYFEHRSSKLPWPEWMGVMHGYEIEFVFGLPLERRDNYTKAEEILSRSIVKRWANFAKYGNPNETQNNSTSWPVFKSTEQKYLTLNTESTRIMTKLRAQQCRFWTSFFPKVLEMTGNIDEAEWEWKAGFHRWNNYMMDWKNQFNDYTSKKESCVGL
Acetylcholinesterase, sequence (P22303 whole entry): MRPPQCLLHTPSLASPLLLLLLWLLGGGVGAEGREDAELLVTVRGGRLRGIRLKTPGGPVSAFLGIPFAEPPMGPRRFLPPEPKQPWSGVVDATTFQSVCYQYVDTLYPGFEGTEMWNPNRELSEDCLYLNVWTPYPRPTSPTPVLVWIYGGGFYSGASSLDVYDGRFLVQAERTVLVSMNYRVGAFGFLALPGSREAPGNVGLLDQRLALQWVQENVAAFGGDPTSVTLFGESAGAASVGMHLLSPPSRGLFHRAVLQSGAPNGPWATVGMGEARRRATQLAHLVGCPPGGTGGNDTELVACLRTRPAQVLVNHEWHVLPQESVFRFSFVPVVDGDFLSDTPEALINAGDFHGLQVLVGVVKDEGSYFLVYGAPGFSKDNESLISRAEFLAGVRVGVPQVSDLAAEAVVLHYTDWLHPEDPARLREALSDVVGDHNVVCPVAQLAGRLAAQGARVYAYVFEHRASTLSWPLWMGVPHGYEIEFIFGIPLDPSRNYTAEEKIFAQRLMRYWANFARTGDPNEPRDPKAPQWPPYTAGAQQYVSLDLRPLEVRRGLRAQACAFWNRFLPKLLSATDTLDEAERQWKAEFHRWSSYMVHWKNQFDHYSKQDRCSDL

Row | Compound | IC50 (Acetylcholinesterase) [µM] | IC50 (Cholinesterase) [µM] | IC50 (Tyrosinase [1]) [µM] | IC50 (PC-3) [µg/mL] | MIC (Escherichia coli) [µg/mL] | MIC (Klebsiella pneumoniae) [µg/mL] | MIC (Staphylococcus aureus) [µg/mL] | MIC (Enterococcus faecalis) [µg/mL] | MIC (Candida albicans) [µg/mL] | MIC (Cyberlindnera jadinii) [µg/mL] | IC50 (Tyrosinase [2]) [µM]
1 | CCC(c1ccc(O)c(OC)c1)c1ccc(OC)cc1O (stereo not drawn) | 4.76 | 2.25 | 2.83 | 12.2 (≈ 42.2 µM) | 269 (≈ 933 µM) | 204 (≈ 707 µM) | 184 (≈ 638 µM) | 112 (≈ 389 µM) | 220 (≈ 761 µM) | 249 (≈ 864 µM) | 
2 | O=c1c(O)c(-c2ccc(O)cc2)oc2cc(O)cc(O)c12 [KAEMPFEROL] |  |  |  |  |  |  |  |  |  |  | 65.1
3 | CCC(c1ccc(O)c(OC)c1)c1cccc(O)c1O (stereo not drawn) | 5.66 | 2.82 | 2.32 | 16.1 (≈ 58.9 µM) | 181 (≈ 659 µM) | 277 (≈ 1010 µM) | 284 (≈ 1040 µM) | 369 (≈ 1350 µM) | 448 (≈ 1630 µM) | 467 (≈ 1700 µM) | 
4 | O=C(/C=C/c1ccc(O)cc1)OC[C@H]1O[C@@H](Oc2c(-c3ccc(O)cc3)oc3cc(O)cc(O)c3c2=O)[C@H](O)[C@@H](O)[C@@H]1O [TILIROSIDE] |  |  |  |  |  |  |  |  |  |  | 78.5
